According to PubChem BioAssay (NCI):
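How tested: cells in 96-well plates exposed to compound for 48 hours at five concentrations. Abbreviation: GI50, concentration required for 50% inhibition of growth. TGI denotes the concentration required for complete inhibition of growth.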

Columns and labels:
Assay in all cases: DTP human tumour cell line panel, 48 h
[1] = tested on: HCC-2998 colon
[2] = tested on: M14 melanoma
[3] = tested on: MCF7 breast
[4] = tested on: MDA-MB-231 breast
[5] = tested on: NCI-H460 lung
[6] = tested on: OVCAR-4 ovarian
[7] = tested on: SF-539 CNS
[8] = tested on: HL-60(TB) leukemia
[9] = tested on: SR leukemia

## COc1ccc(OC)c(/C=N/NC(=O)Cc2csc3nc(-c4ccc(Br)cc4)cn23)c1
[1]
  GI50: 10 µM
  TGI: 34.9 µM
[2]
  GI50: 15.1 µM
  TGI: 72.1 µM
[3]
  GI50: 29.7 µM
  TGI: > 100 µM
[4]
  GI50: 16.4 µM
  TGI: 41.2 µM
[5]
  GI50: > 100 µM
  TGI: > 100 µM
[6]
  GI50: 28.4 µM
  TGI: > 100 µM
[7]
  GI50: 11.2 µM
  TGI: 24.4 µM

## COC(=O)C1=C(c2ccc(OC)c(OC)c2)OC(c2ccc(OC)c(OC)c2)C1 (stereo not drawn)
[1]
  TGI: > 100 µM
[8]
  TGI: 44.6 µM
[2]
  TGI: > 100 µM
[5]
  TGI: > 100 µM
[6]
  TGI: > 100 µM
[7]
  TGI: > 100 µM
[9]
  TGI: > 100 µM

## Cc1ccc(S(=O)(=O)N[C@H](C(=O)O)c2ccccc2)cc1
[1]
  TGI: > 100 µM
[8]
  TGI: > 100 µM
[2]
  TGI: > 100 µM
[5]
  TGI: > 100 µM
[6]
  TGI: > 100 µM
[7]
  TGI: > 100 µM

## CC(NS(=O)(=O)c1ccc([N+](=O)[O-])cc1)C(=O)O (stereo not drawn)
[1]
  TGI: > 100 µM
[8]
  TGI: > 100 µM
[2]
  TGI: > 100 µM
[5]
  TGI: > 100 µM
[6]
  TGI: > 100 µM
[7]
  TGI: > 100 µM

## NC1=NC(=O)/C(=C/c2ccccc2[N+](=O)[O-])C(N)=N1
[1]
  TGI: > 100 µM
[8]
  TGI: > 100 µM
[2]
  TGI: > 100 µM
[5]
  TGI: > 100 µM
[6]
  TGI: > 100 µM
[7]
  TGI: > 100 µM
[9]
  TGI: > 100 µM

## O=C1C(Cl)=C(Nc2cccc(Cl)c2)C(=O)N1Cc1ccccc1
[1]
  GI50: 4.59 µM
  TGI: 18.1 µM
[2]
  GI50: 6.73 µM
  TGI: 22.5 µM
[3]
  GI50: 14.9 µM
  TGI: > 100 µM
[5]
  GI50: 7.11 µM
  TGI: 27.9 µM
[6]
  GI50: 22.3 µM
  TGI: 67.4 µM
[9]
  GI50: 2.19 µM
  TGI: 29.3 µM

## CS/C(=N\C(=S)N(C)C)N(c1ccccc1)c1nc(=[N+](C)C)ss1
[1]
  TGI: 28.9 µM
[8]
  TGI: 5.98 µM
[2]
  TGI: 16.7 µM
[5]
  TGI: 25.7 µM
[6]
  TGI: 24.7 µM
[7]
  TGI: 25.5 µM
[9]
  TGI: 24.6 µM

## CCCCC[C@H](O)/C=C/[C@@H]1[C@@H](C/C=C\CCCC(=O)O)[C@@H](O)C[C@H]1O
[1]
  GI50: > 100 µM
  TGI: > 100 µM
[8]
  GI50: > 100 µM
  TGI: > 100 µM
[3]
  GI50: > 100 µM
  TGI: > 100 µM
[4]
  GI50: > 100 µM
  TGI: > 100 µM
[5]
  GI50: > 100 µM
  TGI: > 100 µM
[6]
  GI50: > 100 µM
  TGI: > 100 µM
[7]
  GI50: > 100 µM
  TGI: > 100 µM
[9]
  GI50: > 100 µM
  TGI: > 100 µM

## NC(=O)NNCc1ccccc1
[1]
  TGI: > 100 µM
[8]
  TGI: > 100 µM
[2]
  TGI: > 100 µM
[3]
  TGI: > 100 µM
[4]
  TGI: > 100 µM
[5]
  TGI: > 100 µM
[6]
  TGI: > 100 µM
[7]
  TGI: > 100 µM

## CCOc1ccccc1NC(=O)CC1C(=O)Nc2ccccc2S1=O (stereo not drawn)
[1]
  TGI: > 100 µM
[8]
  TGI: > 100 µM
[2]
  TGI: > 100 µM
[5]
  TGI: > 100 µM
[6]
  TGI: > 100 µM
[7]
  TGI: > 100 µM
[9]
  TGI: > 100 µM

## CC1CC(C2=CC=CCS2)=Nc2ccccc2S1 (stereo not drawn)
[1]
  TGI: > 100 µM
[8]
  TGI: > 100 µM
[2]
  TGI: > 100 µM
[5]
  TGI: > 100 µM
[6]
  TGI: > 100 µM
[7]
  TGI: > 100 µM

## Cc1nc(-c2cccc(Nc3nc(-c4ccc(Cl)cc4)cs3)c2)cs1
[8]
  GI50: 19.8 µM
  TGI: > 50 µM
[2]
  GI50: 9.72 µM
  TGI: 19.6 µM
[3]
  GI50: 14.7 µM
  TGI: 43.7 µM
[4]
  GI50: 11.1 µM
  TGI: 23.3 µM
[5]
  GI50: 12.4 µM
  TGI: 31.6 µM
[9]
  GI50: 8.31 µM
  TGI: 27 µM
